Earlier results in patent US8563554B2, “Deuterated pyrazinoisoquinoline compounds” (Concert Pharmaceuticals, Inc., priority 2009, dated 2013).

O=C(C1CCCCC1)N1CC(=O)N2CCc3ccccc3C2C1 (centres unmarked) [praziquantel, 2-(cyclohexylcarbonyl)-1,2,3,6,7,11b-hexahydro-4H-pyrazino[2,1-a]isoquinolin-4-one]
dose excreted in the kidneys (share of a dose of praziquantel): Approximately 80%
excreted in the form of metabolites (share of the renally excreted dose present as metabolites): > 99%
